Sander's compilation of Henry's law constants (doi:10.1002/jps.2600670510)

Test: Henry solubility constant Hcp at 298.15 K (mol/(m3 Pa))
Details: reference: Rytting et al. (1978)

| Henry solubility constant Hcp | SMILES |
| --- | --- |
| 0.52 | CCCCN [1-butanamine] |
| 0.24 | CCCCCCCN [1-heptanamine] |
| 0.32 | CCCCCCN [1-hexanamine] |
| 0.19 | CCCCCCCCN [1-octanamine] |
| 0.4 | CCCCCN [1-pentanamine] |
| 0.9 | CCCCCO [1-pentanol] |
| 0.98 | CCC(C)O (configuration not stated) [2-butanol] |
| 0.8 | CC(C)CO [2-methyl-1-propanol] |
| 4.8e-06 | CCCCCCC [heptane] |
| 5.4e-06 | CCCCCC [hexane] |
| 3.1e-06 | CCCCCCCC [octane] |
| 7.8e-06 | CCCCC [pentane] |
